Source: patent US6022861A, “Ketoheterocyclic inhibitors of factor Xa” (COR Therapeutics, Inc., priority 1995, dated 2000)

Tests used:
[1] = molecular target: thrombin (Homo sapiens, UniProt P00734); assay: Thrombin amidolytic assay (Chromozym TH); assay type: biochemical; details: read-out: Inhibitory Activity (IC50) Thrombin
Protocol: The compounds of the present invention are dissolved in buffer to give solutions containing concentrations such that assay concentrations range from 0 to 100 μM. In the assays for thrombin, prothrombinase and factor Xa, a synthetic chromogenic substrate is added to a solution containing test compound and the enzyme of interest and the residual catalytic activity of that enzyme is determined spectrophotometrically. The IC50 of a compound is determined from the substrate turnover.
The factor Xa and thrombin assays were performed at room temperature, in 0.02 M Tris·HCl buffer, pH 7.5, containing 0.15 M NaCl. The rates of hydrolysis of the para-nitroanilide substrate S-2765 (Chromogenix) for factor Xa, and the substrate Chromozym TH (Boehringer Mannheim) for thrombin following preincubation of the enzyme with inhibitor for 5 minutes at room temperature, and were determined using the Softmax 96-well plate reader (Molecular Devices), monitored at 405 nm to measure the time dependent appearance of p-nitroaniline.

[2] = molecular target: factor Xa (Homo sapiens, UniProt P00742); assay: Factor Xa amidolytic assay (chromogenic substrate S-2765); assay type: biochemical; details: read-out: Inhibitory Activity (IC50) Factor Xa
Protocol: (§1) In the assays for thrombin, prothrombinase and factor Xa, a synthetic chromogenic substrate is added to a solution containing test compound and the enzyme of interest and the residual catalytic activity of that enzyme is determined spectrophotometrically. The IC50 of a compound is determined from the substrate turnover.

[3] = molecular target: prothrombinase complex (Homo sapiens, UniProt P00742); assay: Prothrombinase inhibition assay (plasma free system, Chromozym TH); assay type: biochemical; details: read-out: Inhibitory Activity (IC50) Prothrombinase
Protocol: as §1

[4] = test system: Rabbit Model of Venous Thrombosis; assay: Rabbit deep vein thrombosis model, inhibition of thrombus growth; assay type: in vivo; details: for % Inhibition of Thrombosis: rabbit
Text: (§2) Rabbits were anesthetized with I.M. injections of Ketamine, Xylazine, and Acepromazine cocktail. A standardized protocol consisted of insertion of a thrombogenic cotton thread and copper wire apparatus into the abdominal vena cava of the anesthetized rabbit. A non-occlusive thrombus was allowed to develop in the central venous circulation and inhibition of thrombus growth was used as a measure of the antithrombotic activity of the studied compounds. Test agents or control saline were administered through a marginal ear vein catheter. A femoral vein catheter was used for blood sampling prior to and during steady state infusion of test compound. Initiation of thrombus formation begins immediately after advancement of the cotton thread apparatus into the central venous circulation. Test compounds were administered from time=30 min to time=150 min at which the experiment was terminated. The rabbits were euthanized and the thrombus excised by surgical dissection and characterized by weight and histology. Blood samples were analyzed for changes in hematological and coagulation parameters.

[5] = Coagulation parameters (aPTT, PT) in rabbit venous thrombosis model; assay type: in vivo; details: for PT fold increase over baseline / aPTT fold increase over baseline: steady state, mean ± SD
Text: as §2

[6] = rabbit, in vivo
Text: as §2

[7] = highest dose (100 μg/kg+2.57 μg/kg/min)

prothrombinase complex, sequence (P00742 41-179 limits assumed): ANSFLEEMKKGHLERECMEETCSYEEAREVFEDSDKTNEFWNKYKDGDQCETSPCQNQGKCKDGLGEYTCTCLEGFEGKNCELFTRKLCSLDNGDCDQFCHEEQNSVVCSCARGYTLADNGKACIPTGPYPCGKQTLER
prothrombinase complex, sequence (P00742 235-488 limits assumed): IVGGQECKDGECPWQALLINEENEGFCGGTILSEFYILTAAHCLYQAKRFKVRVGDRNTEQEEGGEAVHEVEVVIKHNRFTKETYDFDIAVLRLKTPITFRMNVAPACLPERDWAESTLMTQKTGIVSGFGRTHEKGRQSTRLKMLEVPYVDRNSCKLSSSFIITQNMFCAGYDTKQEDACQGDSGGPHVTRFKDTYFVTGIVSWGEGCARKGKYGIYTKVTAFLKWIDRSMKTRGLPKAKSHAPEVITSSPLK
prothrombinase complex, sequence (P12259 29-737 partner limits assumed): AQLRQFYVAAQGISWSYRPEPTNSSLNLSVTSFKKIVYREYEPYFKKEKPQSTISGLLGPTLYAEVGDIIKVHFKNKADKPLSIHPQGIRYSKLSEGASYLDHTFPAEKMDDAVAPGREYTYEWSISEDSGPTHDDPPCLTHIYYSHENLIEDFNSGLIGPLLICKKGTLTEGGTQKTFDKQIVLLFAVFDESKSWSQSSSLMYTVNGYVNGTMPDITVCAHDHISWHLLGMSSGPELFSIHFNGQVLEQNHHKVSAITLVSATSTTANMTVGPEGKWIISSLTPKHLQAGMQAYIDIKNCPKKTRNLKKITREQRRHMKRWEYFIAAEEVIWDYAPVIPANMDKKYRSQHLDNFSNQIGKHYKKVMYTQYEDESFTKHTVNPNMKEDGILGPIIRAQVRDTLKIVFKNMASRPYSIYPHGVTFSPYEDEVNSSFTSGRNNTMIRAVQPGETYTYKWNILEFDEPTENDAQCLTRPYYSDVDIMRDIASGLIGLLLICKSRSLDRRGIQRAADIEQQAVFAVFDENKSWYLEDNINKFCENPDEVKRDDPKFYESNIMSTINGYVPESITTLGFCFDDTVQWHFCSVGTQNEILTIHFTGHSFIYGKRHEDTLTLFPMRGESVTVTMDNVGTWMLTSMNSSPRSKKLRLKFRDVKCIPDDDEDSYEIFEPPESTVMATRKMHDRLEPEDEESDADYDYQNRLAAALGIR
prothrombinase complex, sequence (P12259 1574-2224 partner limits assumed): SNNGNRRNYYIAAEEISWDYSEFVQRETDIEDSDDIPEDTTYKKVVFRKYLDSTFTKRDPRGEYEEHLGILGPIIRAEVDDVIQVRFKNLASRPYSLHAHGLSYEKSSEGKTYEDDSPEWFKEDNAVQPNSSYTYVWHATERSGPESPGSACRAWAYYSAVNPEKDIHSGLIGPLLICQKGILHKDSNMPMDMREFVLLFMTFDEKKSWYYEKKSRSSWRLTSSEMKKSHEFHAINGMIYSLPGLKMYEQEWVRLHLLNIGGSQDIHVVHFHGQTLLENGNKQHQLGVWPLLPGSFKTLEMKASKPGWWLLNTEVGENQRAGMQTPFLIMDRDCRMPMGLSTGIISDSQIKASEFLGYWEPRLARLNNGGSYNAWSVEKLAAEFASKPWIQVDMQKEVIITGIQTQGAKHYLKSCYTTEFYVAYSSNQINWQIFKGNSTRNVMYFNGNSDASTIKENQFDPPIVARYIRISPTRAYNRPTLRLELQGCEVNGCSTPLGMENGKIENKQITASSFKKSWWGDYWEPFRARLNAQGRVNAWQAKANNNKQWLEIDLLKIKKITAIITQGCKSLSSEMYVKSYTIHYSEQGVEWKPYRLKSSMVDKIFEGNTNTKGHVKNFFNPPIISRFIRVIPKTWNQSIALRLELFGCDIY
factor Xa, sequence (P00742 41-179 limits assumed): as the sequence (P00742 41-179 limits assumed) above
factor Xa, sequence (P00742 235-488 limits assumed): as the sequence (P00742 235-488 limits assumed) above

| IC50 [1] [µM] | IC50 [2] [nM] | IC50 [3] [nM] | effects on hematological parameters [6] | Compound | antithrombotic efficacy in the rabbit venous thrombosis model ([4]; at the higher doses evaluated) | % Inhibition of Thrombosis ([4]; dose regimen 50 + 1.28 (μg/kg + μg/kg/min)) [%] | % Inhibition of Thrombosis ([4]; dose regimen 75 + 1.93 (μg/kg + μg/kg/min)) [%] | % Inhibition of Thrombosis ([4]; dose regimen 100 + 2.57 (μg/kg + μg/kg/min)) [%] | PT fold increase over baseline ([5]; 50 + 1.28 (μg/kg + μg/kg/min)) [fold] | aPTT fold increase over baseline ([5]; 50 + 1.28 (μg/kg + μg/kg/min)) [fold] | PT fold increase over baseline ([5]; 75 + 1.93 (μg/kg + μg/kg/min)) [fold] | aPTT fold increase over baseline ([5]; 75 + 1.93 (μg/kg + μg/kg/min)) [fold] | PT fold increase over baseline ([5]; 100 + 2.57 (μg/kg + μg/kg/min)) [fold] | aPTT fold increase over baseline ([5]; 100 + 2.57 (μg/kg + μg/kg/min)) [fold] | effect on PT prolongation [5, 7] | effect on aPTT prolongation [5, 7] |
| --- | --- | --- | --- | --- | --- | --- | --- | --- | --- | --- | --- | --- | --- | --- | --- | --- |
| 10 |  |  |  | N=C(N)NCCC[C@H](NC(=O)CNC(=O)[C@@H](CCCNC(=N)N)NS(=O)(=O)Cc1ccccc1)C(=O)c1nccs1 [BriSO2 -(D)-Arg-Gly-Arg-thiazole, BnSO2 -(D)-Ar g-Gly-Arg-Thiazole] |  |  |  |  |  |  |  |  |  |  |  |  |
| 41 | 11 | 10 | no significant effects | NC(N)=NCCCC(N)C(=O)NCC(=O)NC(CCCN=C(N)N)C(=O)c1nccs1 [H-D-Arg-Gly-Arg-thiazole, H-(D)-Arg-Gly-Arg-Thiazole] | demonstrated antithrombotic efficacy | -7.84 | 42.95 | 117.72 | 1.00 ± 0.00 | 1.00 ± 0.03 | 1.00 ± 0.00 | 1.02 ± 0.03 | 0.83 ± 0.00 | 1.08 ± 0.02 | no significant effect | no significant effect |
